Test results published in the NIST ThermoML archive (doi:10.1016/j.jct.2014.06.005).

Assays:
[1] = Ring tensiometer
[2] = xn = mol fraction of the nth substance listed; conditions: Ring tensiometer

CC(C)(C)O [2-methylpropan-2-ol]
[1]
Conditions	surface tension liquid-gas [mN/m]
298.15 K	19.96
308.15 K	19.26
318.15 K	18.35
328.15 K	17.62

CC(C)(C)O [2-methylpropan-2-ol] + C[S+](C)[O-]
surface tension liquid-gas [mN/m], [2]
Conditions	298.15 K	308.15 K	318.15 K	328.15 K
x1 = 0.0183	39.25	38.29	37.56	36.51
x1 = 0.0361	36.85	36.01	35.32	34.28
x1 = 0.0695	34.2	33.39	32.73	31.66
x1 = 0.1008	32.36	31.54	30.78	29.89
x1 = 0.1301	31.04	30.17	29.53	28.54
x1 = 0.1832	29.19	28.35	27.71	26.83
x1 = 0.2302	28.08	27.23	26.53	25.71
x1 = 0.3096	26.31	25.51	24.96	24.17
x1 = 0.4022	24.98	24.21	23.69	22.86
x1 = 0.4928	23.72	23.02	22.37	21.63
x1 = 0.5736	22.87	22.01	21.36	20.63
x1 = 0.6322	22.19	21.4	20.85	20.06
x1 = 0.6767	21.72	21.02	20.47	19.71
x1 = 0.7115	21.51	20.85	20.18	19.38
x1 = 0.8511	20.64	19.92	19.03	18.26
x1 = 1	19.96	19.26	18.35	17.62

CC(C)CCO [3-methylbutan-1-ol]
[1]
Conditions	surface tension liquid-gas [mN/m]
298.15 K	22.83
308.15 K	22.02
318.15 K	21.3
328.15 K	20.49

CC(C)CCO [3-methylbutan-1-ol] + C[S+](C)[O-]
surface tension liquid-gas [mN/m], [2]
Conditions	298.15 K	308.15 K	318.15 K	328.15 K
x1 = 0.0033	41.6	40.66	39.65	38.38
x1 = 0.0065	40.98	40.12	39.19	37.83
x1 = 0.0129	40.07	39.09	38.42	37.08
x1 = 0.0255	38.5	37.78	37.05	35.84
x1 = 0.0377	37.32	36.8	35.85	34.87
x1 = 0.0783	34.25	33.78	32.99	32.37
x1 = 0.1307	31.96	31.49	30.9	30.18
x1 = 0.1774	30.51	30	29.39	28.79
x1 = 0.2572	28.72	28.06	27.39	26.8
x1 = 0.323	27.65	27.06	26.37	25.6
x1 = 0.378	26.87	26.28	25.59	24.91
x1 = 0.4456	26	25.48	24.78	23.98
x1 = 0.4999	25.54	24.81	24.06	23.39
x1 = 0.5578	25	24.23	23.51	22.81
x1 = 0.6036	24.54	23.78	22.99	22.19
x1 = 0.6491	24.14	23.36	22.7	21.82
x1 = 0.6851	23.81	23.11	22.46	21.51
x1 = 0.786	23.42	22.69	22.01	21.16
x1 = 0.8875	23.16	22.41	21.64	20.89
x1 = 0.9511	22.95	22.2	21.46	20.68
x1 = 1	22.83	22.02	21.3	20.49

C[S+](C)[O-] [dimethyl sulfoxide]
[1]
Conditions	surface tension liquid-gas [mN/m]
298.15 K	42.28
308.15 K	41.18
318.15 K	40.14
328.15 K	38.93

C[S+](C)[O-] [dimethyl sulfoxide] + CC(C)(C)O
[2], x2 = 0
Conditions	surface tension liquid-gas [mN/m]
298.15 K	42.28
308.15 K	41.18
318.15 K	40.14
328.15 K	38.93

C[S+](C)[O-] [dimethyl sulfoxide] + CC(C)CCO
[2], x2 = 0
Conditions	surface tension liquid-gas [mN/m]
298.15 K	42.28
308.15 K	41.18
318.15 K	40.14
328.15 K	38.93
